Columns and labels:
[1] = tested on: cell lines depleted of SASH1; assay: Olaparib sensitivity of cell lines depleted of SASH1 using siRNA; format: cell-based; details: number of cell lines tested
Text: FIG. 5. Depletion of SASH1 increases cancer cell sensitivity to Olaparib. A) Cell lines depleted of SASH1 have a reduced IC50 to Olaparib. B) Combined data of cell lines with SASH1 depletion showing a significant reduction in IC50 to Olaparib.

[2] = tested on: U2OS cells; assay: Olaparib sensitivity of stable U2OS cell line ectopically expressing recombinant SASH1; format: cell-based
Text: FIG. 6. Over expression of SASH1 infers resistance to Olaparib in U2OS cells.
Further to this, we made a stable U2OS cell line ectopically expressing recombinant SASH1.

O=C(c1cc(Cc2n[nH]c(=O)c3ccccc23)ccc1F)N1CCN(C(=O)C2CC2)CC1 [Olaparib]
cell lines with increase in sensitivity to Olaparib after depletion of SASH1 [1]: 9 out of 12 | effect of SASH1 over-expression on Olaparib response [2]: sufficient to induce resistance

From US20210364519A1, “DETERMINING CANCER RESPONSIVENESS TO TREATMENT” (Queensland University of Technology, priority 2018, published 2021)
